One molecule from patent US4582827A, “Pesticidal diphenylaziridines” (priority 1983, dated 1986) can be followed below.

This series relates to Salmonella typhimurium strains TA 98, TA 100, TA 1535, TA 1537, TA 1538, TA 1978. In words: Ames assay (spot test), revertant colonies. The format is cell-based. The procedure: This means that aziridine compounds, 1, 10, or 11, will not cause mutations in DNA arising from potential changes in frame shift and/or base pairing. Compounds 1, 10 and 11 were tested for mutagenic properties using the following experimental procedure.
Potential mutagenic and carcinogenic properties of the compounds were evaluated with standard Ames assay procedures (Ames et al, "Mutation Res.", 31, p. 347, 1975). This assay used strains of Salmonella typhimurium selected for sensitivity and specificity in being reverted from a histidine requirement back to prototrophy by a wide variety of mutagens. Potential changes in frameshift were evaluated using strains TA 98, TA 1537 and TA 1538, while changes in base pairing were detected using strains TA 100 and TA 1535. In addition, strain TA 1978 was used, in combination with TA 1538, to evaluate whether the agent killed bacteria by damage to DNA that could be repaired by this strain. Initially, the compounds were screened using the spot test, in which 1000 μgm of material dissolved in 10 μl of DNSO was applied to the middle of the plate.
Dose-response tests were not performed because the results were negative. All the tests were carried out in the presence and absence of an S9 rat liver preparation and contained a positive control (2-acetylaminofluorene,AAF) and a negative control (DMSO).

Molecules are shown by their SMILES.

As for `CC(=O)Nc1ccc2c(c1)Cc1ccccc1-2` [AAF, 2-acetylaminofluorene, reference compound], the “Mean number of revertant colonies per plate, TA 98 +S9” value (strain TA 98, +S9) came to 284.7 colonies per plate. Further, where the note is “strain TA 98, -S9”, the “Mean number of revertant colonies per plate, TA 98 -S9” value is given as 32.7 colonies per plate. Also, for the setting “strain TA 100, +S9”, the “Mean number of revertant colonies per plate, TA 100 +S9” value is recorded as 78.0 colonies per plate. In addition, the “Mean number of revertant colonies per plate, TA 100 -S9” value (strain TA 100, -S9) is 25.3 colonies per plate. The “Mean number of revertant colonies per plate, TA 1535 +S9” value (strain TA 1535, +S9) is 19.7 colonies per plate. Besides, where the note is “strain TA 1535, -S9”, the “Mean number of revertant colonies per plate, TA 1535 -S9” value amounted to 15.7 colonies per plate. Moreover, the “Mean number of revertant colonies per plate, TA 1537 +S9” value (strain TA 1537, +S9) turned out to be 14.7 colonies per plate. Also, the “Mean number of revertant colonies per plate, TA 1537 -S9” value (strain TA 1537, -S9) turned out to be 7.7 colonies per plate. Moreover, the “Mean number of revertant colonies per plate, TA 1538 +S9” value (strain TA 1538, +S9) is 313.7 colonies per plate. In addition, the “Mean number of revertant colonies per plate, TA 1538 -S9” value (strain TA 1538, -S9) turned out to be 14.7 colonies per plate. In addition, the “Mean number of revertant colonies per plate, TA 1978 +S9” value (strain TA 1978, +S9) is given as 358.3 colonies per plate. Besides, under “strain TA 1978, -S9”, the “Mean number of revertant colonies per plate, TA 1978 -S9” value worked out at 196.3 colonies per plate.
